This note sets out measurements from patent US20260224596A1, “Phosphate Prodrugs of Cannabinoids” (Emory University, priority 2023, published 2026).

In brackets after ≈: the same amount, converted by molar mass. Where a name gives a salt, the structure may show the parent alone.

A short description of series [1]: Liver microsome stability assay (HLM). Format: in vitro ADME. Particulars: human liver microsomes, 3 μM test compound, NADPH, 0-30 min, LC-MS/MS; for half-life at 3 μM: pH 7.4, read-out: T½ in HLM. Here is the method:
As used herein, the “human liver microsomes stability, T1/2” is determined according to the procedure described in Example 9.
Human and mouse liver microsomes were purchased from Xenotech at 20 mg/mL. NADPH (Sigma-Aldrich) 10 mM stocks were prepared in deionized water.
Test compounds and positive controls were dissolved in 100% DMSO to make 10 mM stock solutions. Verapamil (Sigma-Aldrich) and diphenhydramine (Sigma-Aldrich) were used as positive controls for both human liver microsomes (HLM) and mouse liver microsomes (MLM). The 10 mM stock solutions of test and control compounds were further diluted in potassium phosphate buffer (100 mM, pH 7.4) to 500 μM to ensure that the organic solvent content was <0.2%. The liver microsome (HLM or MLM) assay was prepared in a 1.5 mL Eppendorf tube with a final volume of 1100 μL for duplicate runs. Each reaction contained phosphate buffer (928.4 μL), liver microsomes (55 μL), and test compound (6.6 μL of 500 μM), resulting in a final concentration of 3 μM for the test compound. The reaction was initiated with 110 μL of 10 mM NADPH. Aliquots (100 μL) were removed in duplicate at 0, 5, 10, 15, and 30 min and quenched in […] of 100% cold methanol which contained internal standard (ISTD: d5-7-ethoxy coumarin 2 μM). The aliquots were centrifuged at 12,000g for 5 min, and the supernatant was transferred and placed in an LC-MS vial. Each time point was assessed by LC-MS/MS, and the area under the m/z curve (AUC), based on the MRM transition, was integrated w.r.t the ISTD. Positive controls were conducted at a final volume of 550 μL to enable a single run for each time point. Negative controls in the absence of NADPH were performed with the test and control compounds, respectively, at a final volume of 150 μL and measured at the most prolonged time point. Control compounds were processed and analyzed like test compounds. Each time point was run in triplicates on LC-MS/MS followed by in-between blank washes to avoid the carryover and to equilibrate the column. Half-life (T1/2) was calculated using the data obtained from LC-MS/MS and by plotting ln (% remaining of the parent prodrug) versus time and performing linear regression to determine slope. Slope=−k and T1/2=0.693/k for first-order kinetics.
(Liver microsomes are a subcellular fraction often used to study metabolism.)

The nature of series [2]: Nephelometry solubility in 1% DMSO. The format is physicochemical. The settings on record: PBS pH 7.0-7.3 with 1% DMSO, 25° C.; for solubility at 90 min: Dulbecco's phosphate-buffered saline with 1% DMSO, aqueous buffer, kinetic from dmso stock. The method, then: Nephelometry experiments were performed using untreated CORNING® COSTAR® 96-well black polystyrene plates with clear flat bottoms. Sample stock solutions and serial dilutions were prepared with DRISOLV® DMSO purchased from MilliporeSigma. […] Nephelometry data was obtained using a NEPHELOSTAR® microplate reader and processed with MARS data analysis software from BMG LabTech.
Tested compounds were dissolved in 100% DMSO to make stock solutions of specified concentrations, ranging from 10 mM minimum up to 50 mM maximum. The sample then underwent serial dilution in a 96-well plate (CORNING® COSTAR®). Well A1 of the plate contained 100% DMSO. […] Using a 12-channel multichannel pipette, 2.5 μL of sample from row A was transferred to each well in row B through row H of the plate. Next, 30 μL of PBS (pH=7.0-7.3) was added to row B through row H, providing each well with 32.5 μL. The plate was then incubated for 30 sec with shaking. Finally. 217.5 μL of PBS buffer was added to row B through row H, and the entire plate was incubated with shaking at 25° C. for 90 min. The final volume of DMSO in actual experiments with PBS buffer was 1% throughout the plate. After 90 min. the 96-well plate was analyzed with a NEPHELOSTAR® instrument and the data was processed with MARS data analysis software.

A short description of the next series: Plasma stability assay. Format: in vitro ADME, human. The settings on record: for half-life at 3 μM: read-out: T½ in human plasma; for Δ^8-THC detected in plasma: release of parent Δ^8-THC in human plasma incubation. The method, then:
As used herein, the “human plasma stability, T1/2” is determined according to the procedure described in Example 10.
Procaine and Procainamide were purchased from Sigma-Aldrich. Human plasma was obtained from BioIVT (Cat. No. […]2N) and 1× Dulbecco's PBS (pH 7.4, Gibco) was obtained from Thermos Fischer. Stock solutions were prepared in 100% DMSO, and suitable dilutions of target analytes were prepared in methanol for method development.
Test compounds were dissolved in DMSO to make a stock solution of 10 mM and then diluted to 500 μM in buffer (or 70% MeOH). Human plasma was thawed at ambient temperature and is aliquoted (994.0 μL) to a 1.5 mL Eppendorf tube in duplicates (A and B) for each compound. Plasma was incubated at 37° C. for 10 minutes in an incubator shaker at 150 rpm; the reaction was initiated by the addition of the test compound (6.0 μL) and vortex mixing. The total reaction volume was 1000 μL where the final organic solvent concentrations were 0.6% MeOH and 0.03% DMSO. The spiked plasma samples were incubated at 37° C. for […]. The reactions were terminated at time points 0, 15, 30, 60, and 120 min by taking a 100 μL aliquot from the test incubation mixture and immediately quenching it in ice-cold mathanol containing internal standard (150 μL with 2 μM ISTD), followed by a quick vortex mixing. In addition, matrix blank was prepared by adding methanol solutions containing ISTD to plasma samples without any of the analytes or control compounds. Also, an additional tube was made to measure compound degradation in PBS buffer. The samples were centrifuged at 15,000 rpm for 25 min at 4° C. The supernatant was transferred to an LC-MS vial for analysis by LC/MS-MS. Each time point was run in duplicates followed by in-between blank washes to avoid the carryover and to equilibrate the column. Half-life (T1/2) was calculated using the data obtained from LC-MS/MS and by plotting ln (% remaining of the parent prodrug) versus time and performing linear regression to determine slope. Slope=−k and T1/2=0.693/k for first-order kinetics. Procaine (poor plasma stability) was used as a positive control at a final concentration of 3 μM. The positive control was run in parallel to test the systems for competency.
An exemplary experimental setup is described below. Conical polypropylene microcentrifuge tubes (1.5 mL) were labelled in duplicate for 0, 15, 30, 60, and 120 min for each compound being tested. • Example: No. of tubes prepared per Test Compound (TC): • Test compound: 994 μL human plasma+6.0 μL TC (Vial A) • 994 μL human plasma+6.0 μL TC (Vial B) • Positive control: 596 μL human plasma+3.6 μL (procaine) • Matrix blank: 500 μL PBS buffer+100 μL human plasma • Negative control: 142 μL PBS buffer+0.9 μL TC1 • Quenching mixture: 150 μL methanol with ISID (2 μM) • Final volume after quenching: 250 μL (100 μL from the incubation mixture and 150 μL from the quenching mixture; ISTD conc. 1.2 μM)

Setting [3] is: human plasma, 37° C., time points 0-120 min, LC-MS/MS.

For orientation: solubility means the dissolved amount per volume that the medium holds. A low value points to little dissolved substance. Turning to `CCCCCc1cc(OC(=O)NCCOP(=O)(O)O)c2c(c1)OC(C)(C)[C@@H]1CC=C(C)C[C@@H]21.N.N` [Compound 21a, (6aR,10aR)-6,6,9-trimethyl-3-pentyl-6a,7,10,10a-tetrahydro-6H-benzo[c]chromen-1-yl (2-(phosphonooxy)ethyl)carbamate di-ammonium salt], the half-life at 3 μM in series [1] is 5.6 min. The solubility at 90 min in series [2] was greater than 500 µM.

Take `CCCCCc1cc(OC(=O)OCCCOP(=O)(O)O)c2c(c1)OC(C)(C)[C@@H]1CC=C(C)C[C@@H]21` [Compound 11a, 3-(phosphonooxy)propyl ((6aR,10aR)-6,6,9-trimethyl-3-pentyl-6a,7,10,10a-tetrahydro-6H-benzo[c]chromen-1-yl) carbonate di-ammonium salt]: the half-life at 3 μM in series [1] came out at 18.8 min.

In the case of `CCCCCc1cc(OC(=O)CCCOP(=O)(O)O)c2c(c1)OC(C)(C)[C@@H]1CC=C(C)C[C@@H]21.N.N` [Compound 16a, (6aR,10aR)-6,6,9-trimethyl-3-pentyl-6a,7,10,10a-tetrahydro-6H-benzo[c]chromen-1-yl 4-(phosphonooxy)butanoate di-ammonium salt], the half-life at 3 μM in series [1] was 51.3 min; in “Plasma stability assay” (setting [3]), greater than 120 min. For the same compound, in “Plasma stability assay”, the “Δ^8-THC detected in plasma” value is “Yes”. For the same compound, in series [2], the solubility at 90 min is greater than 500 µM.

As to `CCCCCc1cc(OC(=O)NCCCOP(=O)(O)O)c2c(c1)OC(C)(C)[C@@H]1CC=C(C)C[C@@H]21.N.N` [Compound 21b, (6aR,10aR)-6,6,9-trimethyl-3-pentyl-6a,7,10,10a-tetrahydro-6H-benzo[c]chromen-1-yl (3-(phosphonooxy)propyl)carbamate di-ammonium salt], the half-life at 3 μM is 12.5 min in series [1] and greater than 120 min in “Plasma stability assay” (setting [3]). The “Δ^8-THC detected in plasma” value in the series “Plasma stability assay” was “Yes”. In series [2], this compound returned a solubility at 90 min greater than 500 µM.

In the case of `CCCCCc1cc(O)c2c(c1)OC(C)(C)[C@@H]1CC=C(C)C[C@@H]21` (relative stereo) [Δ^8-THC, (−)trans-Δ^8-THC, reference compound], in series [1], the “T½ in HLM” value is 5.51 min. For the same compound, in the series “Plasma stability assay” (setting [3]), the “T½ in human plasma” value is 1440 ± 360 min. Also, the “Solubility in 1% DMSO” value in series [2] (90 min) stood at 15.93 ± 0.8 µM (≈ 5.01 µg/mL).

For `CCCCCc1cc(OC(=O)OCCCCOP(=O)(O)O)c2c(c1)OC(C)(C)[C@@H]1CC=C(C)C[C@@H]21.N.N` [Compound 11b, 4-(phosphonooxy)butyl ((6aR,10aR)-6,6,9-trimethyl-3-pentyl-6a,7,10,10a-tetrahydro-6H-benzo[c]chromen-1-yl) carbonate di-ammonium salt], the figures for the half-life at 3 μM (in series [1]; in the series “Plasma stability assay” (setting [3])) were 17.2 min and greater than 120 min, respectively. Further, the “Δ^8-THC detected in plasma” value in “Plasma stability assay” is on record as “Yes”. This compound also had a solubility at 90 min in series [2] greater than 500 µM.

In the case of `CCCCCc1cc(OC(=O)CCCCOP(=O)(O)O)c2c(c1)OC(C)(C)[C@@H]1CC=C(C)C[C@@H]21.N.N` [Compound 16b, (6aR,10aR)-6,6,9-trimethyl-3-pentyl-6a,7,10,10a-tetrahydro-6H-benzo[c]chromen-1-yl 5-(phosphonooxy)pentanoate di-ammonium salt], the half-life at 3 μM in series [1] amounted to 40.1 min. Besides, in series [2], the solubility at 90 min was greater than 500 µM.
